Laboratory results: patent US6727253B2, “Treatment of accidental extravasation of anthracyclines” (Antianthra APS, priority 1999, dated 2004)
Like-named read-outs stand apart in the source and are kept apart here.

Experiments:
[1] = system: SC daunorubicin induced wounds in mice; settings: for AUC / DW / FW / TTW: Table A, pooled data
Procedure: The mice were euthanized after healing of all wounds.
The effect of various doses of ICRF-187 was investigated in Example 3.
Comparison of two concentrations of sc daunorubicin were compared with and without simultaneous treatment with ICRF-187 250 mg/kg.
ICRF-187 was administered at the same time as daunorubicin, 3 hours after, and 6 hours after, respectively. Saline served as control. The dose of daunorubicin was 3 mg/kg so and ICRF-187 was administered IP in a 250 mg/kg solution. Twenty-eight mice were used. The results are depicted in data sheet #6 and the mean AUCs are shown graphically in FIG. 5.
100 mg/kg ICRF-187 was injected into the subcutaneous papule produced by injected daunorubicin. This treatment was compared to intralesional saline control, IP saline control, and IP treatment with ICRF-187.
[…]. Seven experiments (n=6, 7, 7, 9, 9, 9, and 9) with 3 mg/kg daunorubicin SC plus saline IP at t=0 and seven experiments (n=6, 7, 7, 9, 9, 8, and 9) with 3 mg/kg daunorubicin SC plus 250 mg/kg ICRF-187 IP at t=0tin two experiments (n=9 and 4) the ICRF-187 doses were 62,5 mg/kg and 375 mg/kg IP, respectively, in two (n=7 and 9) the dose was 125 mg/kg. ICRF-187 250 mg/kg was administered IV in one (n=9).

[2] = system: wound after daunorubicin SC in swine; test: Pilot study on swine, daunorubicin SC; type: in vivo; settings: 1 ml daunorubicin SC, untreated
Procedure: (§1) A danish porker weighting approximately 30 kg was used. The animals were fully anesthesized and artificially ventilated during SC injection of 1 ml of anthracycline.

[3] = system: wound after doxorubicin SC in swine; test: Pilot study on swine, doxorubicin SC; type: in vivo; settings: 3 mg doxorubicin SC, not receiving ICRF-187
Procedure: as §1

[4] = Example 3, daunorubicin 3 mg/kg sc + saline IP
[5] = Example 4, daunorubicin 1 mg/kg sc + saline IP
[6] = Example 4, daunorubicin 3 mg/kg sc + saline IP
[7] = Example 5, daunorubicin 1 mg/kg sc + saline IP
[8] = Example 5, daunorubicin 3 mg/kg sc + saline IP
[9] = Example 6, daunorubicin 3 mg/kg sc + saline IP
[10] = Example 7, daunorubicin 3 mg/kg sc + 0.05 ml saline IL
[11] = Example 7, daunorubicin 3 mg/kg sc + saline IP
[12] = daunorubicin 1 mg/kg SC + saline IP
[13] = daunorubicin 3 mg/kg SC + saline IP
[14] = daunorubicin 3 mg/kg SC + saline IP, listed as daunorubicin

Question: With `COc1cccc2c1C(=O)c1c(O)c3c(c(O)c1C2=O)C[C@@](O)(C(C)=O)C[C@@H]3O[C@H]1C[C@H](N)[C@H](O)[C@H](C)O1` [Daunorubicin] as the molecule, how does the “Mean AUC” value [1, 4] read?
Answer: Its value is 764 mm^2 × days.

Question: What about the “Mean DWw ± SEM” value [1, 4] of the same molecule?
Answer: Its value is 29.8 ± 0.5 days.

Question: What about the “Mean TTWw ± SEM” value [1, 4] of the same molecule?
Answer: Its value is 4.8 ± 0.4 days.

Question: And the “Mean AUC” value [1, 5]?
Answer: The value was 365 mm^2 × days.

Question: What about the “Mean DWw ± SEM” value [1, 5] of the same molecule?
Answer: Its value is 25.5 ± 1.1 days.

Question: And the “Mean TTWw ± SEM” value [1, 5]?
Answer: Its value is 7.3 ± 1.6 days.

Question: And the “Mean AUC” value [1, 6]?
Answer: The value was 1240 mm^2 × days.

Question: What about the “Mean DWw ± SEM” value [1, 6] of the same molecule?
Answer: Its value is 29.0 ± 0.9 days.

Question: What about the “Mean TTWw ± SEM” value [1, 6] of the same molecule?
Answer: The value was 4.8 ± 0.3 days.

Question: What about the “Mean AUC” value [1, 7] of the same molecule?
Answer: Its value is 184 mm^2 × days.

Question: What about the “Mean DWw ± SEM” value [1, 7] of the same molecule?
Answer: Its value is 20.5 ± 1.3 days.

Question: And the “Mean TTWw ± SEM” value [1, 7]?
Answer: The value was 8.5 ± 0.7 days.

Question: What about the “Mean AUC” value [1, 8] of the same molecule?
Answer: Its value is 955 mm^2 × days.

Question: What about the “Mean DWw ± SEM” value [1, 8] of the same molecule?
Answer: Its value is 25.7 ± 0.7 days.

Question: And the “Mean TTWw ± SEM” value [1, 8]?
Answer: Its value is 5.1 ± 0.2 days.

Question: What about the “Mean AUC” value [1, 9] of the same molecule?
Answer: Its value is 1398 mm^2 × days.

Question: And the “Mean DWw ± SEM” value [1, 9]?
Answer: Its value is 27.4 ± 0.5 days.

Question: And the “Mean TTWw ± SEM” value [1, 9]?
Answer: Its value is 5.0 ± 0.4 days.

Question: What about the “Mean AUC” value [1, 10] of the same molecule?
Answer: The value was 1290 mm^2 × days.

Question: What about the “Mean DWw ± SEM” value [1, 10] of the same molecule?
Answer: The value was 24.4 ± 0.6 days.

Question: What about the “Mean TTWw ± SEM” value [1, 10] of the same molecule?
Answer: The value was 6.2 ± 0.3 days.

Question: What about the “Mean AUC” value [1, 11] of the same molecule?
Answer: Its value is 1144 mm^2 × days.

Question: What about the “Mean DWw ± SEM” value [1, 11] of the same molecule?
Answer: Its value is 26.9 ± 0.7 days.

Question: What about the “Mean TTWw ± SEM” value [1, 11] of the same molecule?
Answer: The value was 6.0 ± 0.3 days.

Question: What about the AUC [1, 12] of the same molecule?
Answer: The AUC was 263 (± 56) mm^2×days.

Question: What about the DW [1, 12] of the same molecule?
Answer: Its DW is 22.6 (± 1.1) days.

Question: What about the FW [1, 12] of the same molecule?
Answer: Its FW is 88%.

Question: And the TTW [1, 12]?
Answer: Its TTW is 6.9 (± 0.7) days.

Question: What about the AUC [1, 13] of the same molecule?
Answer: The AUC was 1260 (± 72) mm^2×days.

Question: And the DW [1, 13]?
Answer: Its DW is 26.6 (± 0.3) days.

Question: And the FW [1, 13]?
Answer: The FW was 96%.

Question: What about the TTW [1, 13] of the same molecule?
Answer: The TTW was 5.5 (± 0.2) days.

Question: And the DW [1, 14]?
Answer: Its DW is 26.6 days.

Question: And the TTW [1, 14]?
Answer: Its TTW is 5.5 days.

Question: And the wound appearance [2]?
Answer: The wound appearance was “a large wound appeared”.

Question: How did the wound appearance [3] turn out when `COc1cccc2c1C(=O)c1c(O)c3c(c(O)c1C2=O)C[C@@](O)(C(=O)CO)C[C@@H]3O[C@H]1C[C@H](N)[C@H](O)[C@H](C)O1` [Doxorubicin] was run?
Answer: Its wound appearance is “a wound appeared”.
